The record followed here is US20250099448A1, “HETEROCYCLIC COMPOUNDS” (Hoffmann-La Roche Inc., priority 2022, published 2025).

The assay deals with T1, MAGL protein (Homo sapiens, UniProt Q99685).
T1 sequence (Q99685 1-303): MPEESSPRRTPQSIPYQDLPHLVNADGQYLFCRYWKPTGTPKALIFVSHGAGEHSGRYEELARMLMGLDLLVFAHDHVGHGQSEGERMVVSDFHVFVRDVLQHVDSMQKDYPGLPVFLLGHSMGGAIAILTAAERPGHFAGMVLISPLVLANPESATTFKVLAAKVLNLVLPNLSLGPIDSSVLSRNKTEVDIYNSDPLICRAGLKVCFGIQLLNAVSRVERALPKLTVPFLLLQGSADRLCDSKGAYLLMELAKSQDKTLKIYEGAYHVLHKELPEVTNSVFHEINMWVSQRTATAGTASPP
Kind of assay: 2-AG assay: MAGL inhibitory activity by hydrolysis of 2-arachidonoylglycerol to arachidonic acid, followed by mass spectrometry. The class given is biochemical. Particulars: 8 μM 2-arachidonoylglycerol, 15 min preincubation, 30 min reaction at RT, RapidFire MS readout. The method, boiled down: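 Activity was measured by RapidFire SPE–triple-quad MS as the ratio of arachidonic acid to d8-arachidonic acid after 2-AG hydrolysis (8 μM substrate, 30 min, RT, acetonitrile quench). Compounds, tested from 12.5 μM down to […], were first preincubated 15 min with MAGL in TRIS/EDTA/Tween-20 buffer containing 2.5% DMSO.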

The compound `O=C(N1CC2(CC(c3nc(C4CC4)n[nH]3)C2)C1)N1CC2(CN(Cc3ccn(CCC(F)(F)F)n3)C2)C1` [compound 972] returned an IC50 of 0.0811 µM.
`O=C(N1CC2(CC(Cn3nccc3C3CC3)C2)C1)N1CC2(CC(c3nc(C4CC4)n[nH]3)C2)C1` [compound 973] returned an IC50 of 0.00027 µM.
`O=C(N1CC(C23CC(C(F)(F)c4ccc(C(F)(F)F)cc4)(C2)C3)C1)N1CC2(CC(c3nc(C4(O)CC4)n[nH]3)C2)C1` [compound 974] showed an IC50 of 0.00617 µM.
Next, `Cc1cc(C23CC(C4CN(C(=O)N5CC6(CC(c7nc(C8CC(F)(F)C8)n[nH]7)C6)C5)C4)(C2)C3)[nH]n1` [compound 975]: 1.55 µM.
Next, `CS(=N)(=O)c1ccc(CC2CC3(C2)CN(C(=O)N2CC4(CC(c5nc(C6CC(F)(F)C6)n[nH]5)C4)C2)C3)cc1` (centres unmarked) [compound 976]: 1.79 µM.
On to `CS(=O)(=O)c1ccc(CC2CC3(C2)CN(C(=O)N2CC4(CC(c5nc(C6CC(F)(F)C6)n[nH]5)C4)C2)C3)nc1` [compound 977], for which the IC50 came out at 2.58 µM.
`O=C(N1CC(c2cnc(N3CC(C(F)(F)F)C3)nc2)C1)N1CC2(CC(c3nc(C4CC(F)(F)C4)n[nH]3)C2)C1` [compound 978] showed an IC50 of 2.21 µM.
Then `CS(=O)(=O)c1ccc(-c2ccc(C3CN(C(=O)N4CC5(CC(c6ncn[nH]6)C5)C4)C3)cc2)c(Cl)c1` [compound 981], with 1.77 µM; and `O=C(N1CC2(CC(c3ncn[nH]3)C2)C1)N1CC2(CC(c3ccc(C(F)(F)F)cc3F)C2)C1` [compound 982], with 4.97 µM.
Turning to `O=C(N1CC2(CC(CNC3(C(F)(F)F)CC3)C2)C1)N1CC2(CC(c3ncn[nH]3)C2)C1` [compound 983], the midpoint of inhibition, the IC50, lay at 2.18 µM.
`CS(=O)(=O)c1ccc(CC2CC3(C2)CN(C(=O)N2CC4(CC(c5ncn[nH]5)C4)C2)C3)cc1C(F)(F)F` [compound 984] displayed an IC50 of 2.77 µM.
Next, `O=C(N1CC2(CC(Cc3cc(C(F)(F)F)ccn3)C2)C1)N1CC2(CC(c3ncn[nH]3)C2)C1` [compound 985]: 2.99 µM.
`O=C(N1CC2(CC(Cc3ccc(C(F)(F)F)nc3)C2)C1)N1CC2(CC(c3ncn[nH]3)C2)C1` [compound 986]: the IC50 came out at 2.36 µM.
Next, `O=C(N1CC2(CC(Cc3ccc(C(F)(F)F)cn3)C2)C1)N1CC2(CC(c3ncn[nH]3)C2)C1` [compound 987]: 2.06 µM; `O=C(N1CC2(CC(Cc3ncc(F)cc3F)C2)C1)N1CC2(CC(c3ncn[nH]3)C2)C1` [compound 988]: 2.07 µM; `O=C(N1CC2(CC(Cc3ccc4c(C(F)(F)F)n[nH]c4c3)C2)C1)N1CC2(CC(c3nc(C4CC4)n[nH]3)C2)C1` [compound 989]: 5e-05 µM.
For `O=C(N1CC2(CC(Cc3ccc4nc(C(F)(F)F)cn4c3)C2)C1)N1CC2(CC(c3nc(C4CC4)n[nH]3)C2)C1` [compound 990], the IC50 turned out to be 0.00059 µM.
For the compound `O=C(N1CC2(CC(Cc3cn4cc(C(F)(F)F)nc4cn3)C2)C1)N1CC2(CC(c3nc(C4CC4)n[nH]3)C2)C1` [compound 991], inhibition was half-maximal at 0.00203 µM (IC50).
As for `O=C(N1CC2(CC(Cc3ccc4cnc(C(F)(F)F)n4c3)C2)C1)N1CC2(CC(c3nc(C4CC4)n[nH]3)C2)C1` [compound 992], the IC50 came to 0.00016 µM.
Compound `O=C(N1CC2(CC(Cc3ccc4nc(C(F)(F)F)nn4c3)C2)C1)N1CC2(CC(c3nc(C4CC4)n[nH]3)C2)C1` [compound 993] yielded an IC50 of 0.0008 µM.
For `O=C(N1CC2(CC(Cc3ccc4[nH]nc(C(F)(F)F)c4c3)C2)C1)N1CC2(CC(c3nc(C4CC4)n[nH]3)C2)C1` [compound 994], inhibition was half-maximal at 6e-05 µM (IC50).
In the case of `O=C(N1CC2(CC(Cc3ccc4nnc(C(F)(F)F)n4c3)C2)C1)N1CC2(CC(c3nc(C4CC4)n[nH]3)C2)C1` [compound 995], the IC50 was determined as 0.00274 µM.
Then `O=C(N1CC2(CC(Cc3cnc4cc(C(F)(F)F)nn4c3)C2)C1)N1CC2(CC(c3nc(C4CC4)n[nH]3)C2)C1` [compound 996], with 0.0006 µM.

The term IC50 denotes the midpoint of a concentration-inhibition curve. Higher therefore signals a need for much substance.
